According to patent US9919034B2, “Methods of treating and prophylactically protecting mammalian patients infected by viruses classified in Baltimore group V” (priority 2014, dated 2018):

Tested on: Rabies virus
Type: cell-based

ranpirnase
activity against rabies (SI, FIG. 1): extraordinarily active
